These results are taken from patent publication US20240182460A1, “ALLOSTERIC CHROMENONE INHIBITORS OF PHOSPHOINOSITIDE 3-KINASE (PI3K) FOR THE TREATMENT OF DISEASE” (PETRA PHARMA CORPORATION, priority 2022, published 2024).

Where two headings read alike, the source gives them in different places. Some results are limits rather than exact numbers.

The series can be described thus: Metabolic stability and intrinsic clearance in human liver microsomes (MICS). The class given is in vitro ADME. The conditions noted are these: pH 7.4. The method, then:
Metabolic Stability and Intrinsic Clearance in Liver Microsomes (MICS)
One objective of this assay is to measure in vitro metabolic stability of a test compound in liver microsomes of one or more different species. The concentration of a control compound in the reaction system is evaluated by LC/MS/MS for calculating intrinsic clearance of a test compound and estimating the stability of the control compound and test compound in liver microsomes of one or more different species.
Microsomes (MICS). Human Liver Microsomes (HLM), Monkey Liver Microsomes (MKLM), Dog Liver Microsomes (DLM), Rat Liver Microsomes (RLM), and Mouse Liver Microsomes (MLM) are obtained at a concentration of 20 mg/mL protein from commercial sources and stored in a −80° C. freezer. Prior to use, liver microsomes are removed from the freezer and allowed to thaw in a 37° C. water bath and then stored on wet ice.
Stock Solutions. Test Compound (TC) Stock Solutions are prepared in DMSO at a concentration of 10 mM and stored for later use. Positive Control (PC) Stock Solutions of verapamil·HCL (FW: 491.1 g/mol) in DMSO are prepared at a concentration of 10 mM (4.91 mg/mL), and stored at the condition same as the stock solutions of test compounds.
Phosphate Buffer. Phosphate Buffer (100 mM, pH 7.4) is prepared by combining a Solution A and a Solution B as follows.
To prepare Solution A, 7.098 g of disodium hydrogen phosphate was combined with 500 mL of pure water and sonicated to dissolve. To prepare the Solution B, 3.400 g of potassium dihydrogen phosphate was combined with 250 mL of pure water and sonicated to dissolve. Solution A was placed on a stirrer and Solution B was slowly added into Solution A until the pH reached 7.4.
NADPH Solution. A 10 mM NADPH Solution is prepared by dissolving NADPH (MW: 833.4 g/mol) at 8.334 mg/mL in phosphate buffer (100 mM, pH 7.4).
Microsome Master Solution. A Microsome Master Solution is prepared by adding 6.25 μL microsomes (20 mg/mL) to 216.25 μL Phosphate Buffer (100 mM). The final concentration is Phosphate Buffer (100 mM); microsomes (0.5 mg/mL).
Dilution of Stock Solutions. The TC Stock Solutions (10 mM in DMSO) and the PC Stock Solutions (10 mM in DMSO) are diluted by adding 3 μL of the TC Stock Solution or the PC Stock Solution to 297 μL of 50% acetonitrile/50% water.
Incubation. Two separated experiments were performed as follows. a) With Cofactors (NADPH): 25 μL of 10 mM NADPH was added to the incubations. The final concentrations of
microsomes and NADPH were 0.5 mg/mL and 1 mM, respectively. b) Without Cofactors (NADPH): 25 μL of 100 mM Phosphate buffer was added to the incubations. The final concentration of microsomes was 0.5 mg/mL. The mixture was pre-warmed at 37° C. for 10 minutes.
The reaction was started with the addition of 2.5 μL of 100 μM PC solution or TC solutions.
Verapamil was used as PC in this study. The final concentration of test compound or control compound was 1 μM. The incubation solution was incubated in water batch at 37° C.
Reaction Termination. Aliquots of 30 μL were taken from the reaction solution at 0.5, 5, 15, 30 and 60 minutes and added to plates. The reaction was stopped by the addition of 5 volumes of cold acetonitrile and a solution containing 100 nM alprazolam, 200 nM caffeine and 100 nM tolbutamide.
Sampling. The plates containing the terminated reactions were centrifuged at 4000 rpm for 30 minutes. Supernatant of each compound (40 μL) was transferred into a 96-well analysis plate.
Four compound samples are pooled together into one cassette and diluted by adding 160 μL of pure water. All incubations are performed in duplicate.
Analysis and Data Processing. Quantitative LC-MS analysis is performed, and peak areas are determined from extracted ion chromatograms. Percent parent remaining was calculated from peak area of TC or PC. The slope value, k, is determined by linear regression of the natural logarithm of percent parent remaining vs. incubation time curve. […]

Where [1] appears, read: human liver microsomes 0.5 mg/mL, 1 μM compound, read-out: intrinsic clearance in human MICS.

As to `Cc1cc([C@@H](C)Oc2ccc(Cl)nc2S(N)(=O)=O)c2oc(-c3ccc4nn(C)cc4n3)c(C)c(=O)c2c1` [Example 5B, 6-Chloro-3-[(1R)-1-[3,6-dimethyl-2-(2-methylpyrazolo[4,3-b]pyridin-5-yl)-4-oxo-chromen-8-yl]ethoxy]pyridine-2-sulfonamide], where the note is “human, microsomes”, the microsomal CLint at 1 μM is below 50 µL/min/mg.

With `CONC(=O)c1nc(Cl)ccc1O[C@H](C)c1cc(C)cc2c(=O)c(C)c(-c3ccc4nn(CCO)cc4c3)oc12` [Example 135C, 6-Chloro-3-[(1R)-1-[2-[2-(2-hydroxyethyl)indazol-5-yl]-3,6-dimethyl-4-oxo-chromen-8-yl]ethoxy]-N-methoxy-pyridine-2-carboxamide], the microsomal CLint at 1 μM (human, microsomes) was below 50 µL/min/mg. Compound `Cc1cc([C@@H](C)Oc2ccc(Cl)nc2-c2noc(=O)[nH]2)c2oc(-c3cnn4c3CCC4)c(C)c(=O)c2c1` [Example 102A, 3-[6-Chloro-3-[(1R)-1-[2-(5,6-dihydro-4H-pyrrolo[2,1-e]pyrazol-3-yl)-3,6-dimethyl-4-oxo-chromen-8-yl]ethoxy]-2-pyridyl]-4H-1,2,4-oxadiazol-5-one] displayed a microsomal CLint at 1 μM (human, microsomes) below 50 µL/min/mg. Under “human, microsomes”, `Cc1cc([C@@H](C)Oc2ccccc2S(N)(=O)=O)c2oc(-c3cnn(C)c3)c(C)c(=O)c2c1` [Example 103C, 2-[(1R)-1-[3,6-Dimethyl-2-(1-methylpyrazol-4-yl)-4-oxo-chromen-8-yl]ethoxy]benzenesulfonamide] returned a microsomal CLint at 1 μM below 50 µL/min/mg. Still for that read-out and setting: next, `Cc1cc([C@@H](C)Oc2ccc(Cl)nc2-c2noc(=O)[nH]2)c2oc(-c3cnc4c(c3)OCCO4)c(C)c(=O)c2c1` [Example 47A, 3-[6-Chloro-3-[(1R)-1-[2-(2,3-dihydro-[1,4]dioxino[2,3-b]pyridin-7-yl)-3,6-dimethyl-4-oxo-chromen-8-yl]ethoxy]-2-pyridyl]-4H-1,2,4-oxadiazol-5-one]: below 50 µL/min/mg. Consider `Cc1cc([C@@H](C)Oc2cccnc2-c2noc(=O)[nH]2)c2oc(-c3ccccc3)c(C)c(=O)c2c1` [Example 3, 3-[3-[(1R)-1-(3,6-Dimethyl-4-oxo-2-phenyl-chromen-8-yl)ethoxy]-2-pyridyl]-4H-1,2,4-oxadiazol-5-one], for which, under setting [1], the microsomal CLint at 1 μM was below 50 µL/min/mg. The compound `Cc1cc([C@@H](C)Oc2ccc(Cl)nc2C(N)=O)c2oc(-c3cnn4ncccc34)c(C)c(=O)c2c1` [Example 39C, 6-Chloro-3-[(1R)-1-(3,6-dimethyl-4-oxo-2-pyrazolo[1,5-b]pyridazin-3-yl-chromen-8-yl)ethoxy]pyridine-2-carboxamide] returned a microsomal CLint at 1 μM (human, microsomes) below 50 µL/min/mg. Consider `Cc1cc([C@@H](C)Oc2ccc(Cl)nc2C(=O)NS(C)(=O)=O)c2oc(-c3ccccc3)c(C)c(=O)c2c1` [Example 6, 6-Chloro-3-[(1R)-1-(3,6-dimethyl-4-oxo-2-phenyl-chromen-8-yl)ethoxy]-N-methylsulfonyl-pyridine-2-carboxamide], for which, under setting [1], the microsomal CLint at 1 μM is below 50 µL/min/mg. `Cc1cc([C@@H](C)Oc2ccc(Cl)nc2-c2noc(=O)[nH]2)c2oc(-c3cnc4scnc4c3)c(C)c(=O)c2c1` [Example 1B, 3-[6-Chloro-3-[(1R)-1-(3,6-dimethyl-4-oxo-2-thiazolo[5,4-b]pyridin-6-yl-chromen-8-yl)ethoxy]-2-pyridyl]-4H-1,2,4-oxadiazol-5-one] showed a microsomal CLint at 1 μM (human, microsomes) below 50 µL/min/mg. Still for that read-out and setting: the same measure for `Cc1cc([C@@H](C)Oc2ccc(Cl)nc2S(N)(=O)=O)c2oc(-c3cnn(C)c3)c(Cl)c(=O)c2c1` (single isomer, unassigned) [Example 111C]: below 50 µL/min/mg. Still for that read-out and setting: the same measure for `Cc1cc([C@@H](C)Oc2ccc(Cl)nc2S(N)(=O)=O)c2oc(-c3cnn(C)c3C#N)c(C)c(=O)c2c1` [Example 21C, 6-Chloro-3-[(1R)-1-[2-(5-cyano-1-methyl-pyrazol-4-yl)-3,6-dimethyl-4-oxo-chromen-8-yl]ethoxy]pyridine-2-sulfonamide]: below 50 µL/min/mg; for `Cc1cc([C@@H](C)Oc2ccc(Cl)nc2C(N)=O)c2oc(-c3ccc4[nH]c(=O)ccc4c3)c(C)c(=O)c2c1` [Example 105A, 6-Chloro-3-[(1R)-1-[3,6-dimethyl-4-oxo-2-(2-oxo-1H-quinolin-6-yl)chromen-8-yl]ethoxy]pyridine-2-carboxamide]: below 50 µL/min/mg. `Cc1cc([C@@H](C)Oc2ccc(Cl)nc2C(N)=O)c2oc(-c3cnn4cccnc34)c(C)c(=O)c2c1` [Example 16B, 6-Chloro-3-[(1R)-1-(3,6-dimethyl-4-oxo-2-pyrazolo[1,5-a]pyrimidin-3-yl-chromen-8-yl)ethoxy]pyridine-2-carboxamide] came in with a microsomal CLint at 1 μM (human, microsomes) below 50 µL/min/mg.

Take `Cc1cc([C@@H](C)Oc2ccc(F)c(F)c2C(N)=O)c2oc(-c3cnn(C)c3)c(C)c(=O)c2c1` [Example 31A, 6-[(1R)-1-[3,6-Dimethyl-2-(1-methylpyrazol-4-yl)-4-oxo-chromen-8-yl]ethoxy]-2,3-difluoro-benzamide]: for the setting “human, microsomes”, the microsomal CLint at 1 μM was below 50 µL/min/mg. As for `Cc1cc([C@@H](C)Oc2ccccc2-c2noc(=O)[nH]2)c2oc(-c3ccccc3)c(C)c(=O)c2c1` [Example 4, 3-[2-[(1R)-1-(3,6-Dimethyl-4-oxo-2-phenyl-chromen-8-yl)ethoxy]phenyl]-4H-1,2,4-oxadiazol-5-one], under setting [1], the microsomal CLint at 1 μM is below 50 µL/min/mg.

`Cc1cc([C@@H](C)Oc2ccc(Cl)nc2-c2noc(=O)[nH]2)c2oc(-c3ccc4nn(C)cc4c3)c(C)c(=O)c2c1` [Example 18A, 3-[6-Chloro-3-[(1R)-1-[3,6-dimethyl-2-(2-methylindazol-5-yl)-4-oxo-chromen-8-yl]ethoxy]-2-pyridyl]-4H-1,2,4-oxadiazol-5-one] showed a microsomal CLint at 1 μM (human, microsomes) below 50 µL/min/mg.

Compound `Cc1cc([C@@H](C)Oc2ccc(Cl)nc2S(N)(=O)=O)c2oc(-c3ccn[nH]3)c(C)c(=O)c2c1` [Example 8C, 6-Chloro-3-[(1R)-1-[3,6-dimethyl-4-oxo-2-(1H-pyrazol-5-yl)chromen-8-yl]ethoxy]pyridine-2-sulfonamide] gave a microsomal CLint at 1 μM (human, microsomes) below 50 µL/min/mg. Where the note is “human, microsomes”, `Cc1cc([C@@H](C)Oc2ccc(Cl)nc2-c2noc(=O)[nH]2)c2oc(-c3cnn4c3COCC4)c(C)c(=O)c2c1` [Example 41A, 3-[6-Chloro-3-[(1R)-1-[2-(6,7-dihydro-4H-pyrazolo[5,1-c][1,4]oxazin-3-yl)-3,6-dimethyl-4-oxo-chromen-8-yl]ethoxy]-2-pyridyl]-4H-1,2,4-oxadiazol-5-one] returned a microsomal CLint at 1 μM below 50 µL/min/mg. On the same count and under the same terms, the same measure for `Cc1cc([C@@H](C)Oc2ccc(Cl)nc2S(N)(=O)=O)c2oc(-c3cncnc3)c(C)c(=O)c2c1` [Example 38A, 6-Chloro-3-[(1R)-1-(3,6-dimethyl-4-oxo-2-pyrimidin-5-yl-chromen-8-yl)ethoxy]pyridine-2-sulfonamide]: below 50 µL/min/mg; for `Cc1cc([C@@H](C)Oc2ccc(F)nc2C(N)=O)c2oc(-c3ccc4nn(C)cc4c3)cc(=O)c2c1` [Example 19B, 6-Fluoro-3-[(1R)-1-[6-methyl-2-(2-methylindazol-5-yl)-4-oxo-chromen-8-yl]ethoxy]pyridine-2-carboxamide]: below 50 µL/min/mg; for `Cc1cc([C@@H](C)Oc2cccnc2C(N)=O)c2oc(-c3ccc4nn(C)cc4c3)c(C)c(=O)c2c1` [Example 10A, 3-[(1R)-1-[3,6-Dimethyl-2-(2-methylindazol-5-yl)-4-oxo-chromen-8-yl]ethoxy]pyridine-2-carboxamide]: below 50 µL/min/mg.
